Results filed as inconclusive are left out. Calls of active or inactive are those of the source.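 The calls were made as follows: active = relative estrogen receptor binding affinity above 1E-5, where estradiol scores 100; inconclusive = weak binder, under half inhibition at top dose, or affinity below 1E-5; inactive = no binding seen, affinity zero.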

This note sets out measurements from PubChem BioAssay AID1204 (EPA DSSTox, 2008).

In this data set the test system is estrogen receptor (rat uterine cytosol). The data set is described as follows: DSSTox (NCTRER) National Center for Toxicological Research Estrogen Receptor Binding Database.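 As to relative binding affinity: ratio of estradiol IC50 over compound IC50 times 100 so estradiol equals 100.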 As to conditions: rat uterine cytosol ER competitive binding, RBA; for relative binding affinity: stronger effect = higher value. An excerpt:
Researchers within FDA's National Center for Toxicological Research (NCTR) generated a database of experimental estrogen receptor binding results for the express purpose of developing improved QSAR models to predict ER binding affinities.The NCTR ER database is a structurally diverse set of natural, synthetic, and environmental estrogens covering most known estrogenic classes and spanning a wide range of biological activity. It represents the largest published ER binding database of same-assay results generated in a single laboratory. […] Information on the percent purity and purchasing source for all chemicals are not included in the DSSTox SDF, but can be obtained from the original NCTR ER Source database and Main Citations listed below. The main citation (Fang et al., 2001) surveys the NCTR ER database from a chemical class based, structure-activity relationship (SAR) perspective. Qualitative SAR characteristics of the NCTR ER database are discussed and a set of general hierarchical rules for identifying potential estrogens are presented. The DSSTox NCTRER SDF augments the original NCTR ER database with chemical class and SAR information abstracted from Fang et al. (2001). The DSSTox SDF file supplements the measured ER relative binding affinity for each chemical (ER_RBA) with chemical class assignment to one of 6 major estrogenic classes further divided into 20 subclasses (ChemClass_ERB), along with a qualitative activity measure, ActivityCategory_ER_RBA. A brief narrative SAR rationale pertaining to ER RBA patterns observed by Fang et al. (2001) for each of the 20 subclasses within the database are provided in the field, ActivityCategory_Rationale_ChemClass_ERB. The original NCTR ER database, from which the expanded DSSTox NCTRER was formed, is contained within a larger Endocrine Disruptor Knowledge Base (EDKB) accessible from the FDA Source Website. That website provides online access to a relational database comprised of in vitro and in vivo experimental data for about 2000 natural and synthetic compounds, much of this extracted from the literature and representing testing in many laboratories. Data are included for biological assays that measure estrogenic and androgenic activity. Estrogenic endpoints include in vitro assays for estrogen receptor competitive binding affinity, cell proliferation, and reporter-gene assays, and in vivo assays for uterotrophic activity (i.e., uterine weight gain and vaginal cornification). The database also contains a bibliography of over 1200 citations, many of which include abstracts.
Estrogen receptor relative binding affinity is determined using a competitive receptor binding assay as described in NCTRER Ref (Blair et al., 2000). Briefly, a chemical competes with radiolabeled E2 (i.e., estradiol) for binding to the ER in rat uterine cytosol and the concentration of chemical that causes 50% inhibition of E2 binding (i.e., IC50) is measured. The ER_RBA is calculated by dividing the IC50 of E2 (9X10-10M) by the IC50 of the competitor and multiplying by 100 (E2 RBA = 100). The validated assay tested 1nM E2 with concentrations of competitor ranging from 1nM to 1mM. The larger the ER_RBA values, the greater the binding affinity; ER_RBA > 100 means compound has greater binding affinity than natural ER ligand, E2. […] Activity Score is mapping of LOG_ER_RBA values (ER-RBA>1E-5), spanning activity range [MIN, MAX] onto Integer 20-100 Activity range, where 100 is highest potency and 20 is lowest active potency. If Activity Outcome is "active": Activity Score = 80 * INTEGER[(LOG_ER_RBA - MIN)/(MAX […] MIN)]. If Activity Outcome is "inconclusive" (i.e., slight binder): Activity Score = 5.

The mark [1] stands for this setting: ChemClass_ERB: Phytoestrogens Isoflavones.
The mark [2] stands for this setting: ChemClass_ERB: Phytoestrogens Flavones.
Where [3] appears, read: ChemClass_ERB: Phenols Parabens.
Setting [4] is: ChemClass_ERB: Phenols Alkyloxy.
Where [5] appears, read: ChemClass_ERB: Diphenylmethanes Benzophenones.
The mark [6] stands for this setting: ChemClass_ERB: Diphenylmethanes DDTs.
Where [7] appears, read: ChemClass_ERB: Diphenylmethanes Diphenolalkanes.
Where [8] appears, read: ChemClass_ERB: Steroids With aromatic A ring.

As to `COc1cc(O)c2c(=O)c(-c3ccc(O)cc3)coc2c1`, the relative binding affinity under setting [1] was 0.00181%.

As to `O=c1c(O)c(-c2ccc(O)cc2O)oc2cc(O)cc(O)c12`, under setting [2], the relative binding affinity was 0.00081%.

Consider `CC(C)COC(=O)c1ccccc1C(=O)OCC(C)C`, for which the outcome (ChemClass_ERB: Misc) was inactive.

With `C=CC1(C)OC(=O)N(c2cc(Cl)cc(Cl)c2)C1=O` (configuration not stated), the outcome (ChemClass_ERB: Misc) was inactive.

For the compound `CCCCCCCOC(=O)c1ccc(O)cc1`, under setting [3], the relative binding affinity was 0.00812%.

In the case of `C/C=C/c1ccc(O)c(OC)c1`, the outcome under setting [4] was inactive.

Consider `Oc1ccc([C@H]2COc3cc(O)ccc3C2)cc1`, for which the relative binding affinity under setting [1] was 0.151%.

For the compound `Oc1ccc(-c2cc(Cl)c(Cl)c(Cl)c2Cl)cc1`, under “ChemClass_ERB: Biphenyls PCBs”, the relative binding affinity was 0.23%.

`O=c1cc(-c2ccc(O)cc2)oc2ccc(O)cc12`: the relative binding affinity under setting [2] was 0.151%.

On to `Cn1c(=O)c2c(ncn2C)n(C)c1=O`, for which the outcome (ChemClass_ERB: Misc) was inactive.

`O=P(Oc1ccccc1)(Oc1ccccc1)Oc1ccccc1`: the result (ChemClass_ERB: Misc) was inactive.

In the case of `COc1cc(C=O)ccc1O`, under setting [4], the result was inactive.

As to `O=C(O)CCCCCCC(=O)O`, the outcome (ChemClass_ERB: Misc) was inactive.

For `COC(=O)c1ccc(O)cc1`, under setting [3], the relative binding affinity is 0.00036%.

For `O=S(=O)(c1ccc(O)cc1)c1ccc(O)cc1`, under setting [5], the relative binding affinity is 0.00085%.

As to `O=C1CC(c2ccccc2)Oc2ccc(O)cc21` (configuration not stated), for the setting “ChemClass_ERB: Phytoestrogens Flavanones”, the relative binding affinity was 0.00089%.

Take `Oc1ccc(C(c2ccc(O)cc2)C(Cl)(Cl)Cl)cc1`: under setting [6], the relative binding affinity was 0.251%.

As to `Oc1ccc(Cc2ccc(O)cc2)cc1`, the relative binding affinity under setting [7] is 0.00095%.

Consider `OCCCCCCCCO`, for which, under “ChemClass_ERB: Misc”, the result was inactive.

In the case of `CCNc1nc(Cl)nc(NC(C)C)n1`, under “ChemClass_ERB: Misc”, the result was inactive.

For the compound `CC[C@@H]1c2ccc3cc(OC)ccc3c2CC[C@]1(C)C(=O)O`, where the note is “ChemClass_ERB: Misc”, the relative binding affinity is 0.00181%.

For `Oc1ccccc1-c1ccccc1`, under “ChemClass_ERB: Biphenyls nonchlorinated”, the result was inactive.

With `CNC(=O)Oc1cccc2ccccc12`, where the note is “ChemClass_ERB: Misc”, the outcome was inactive.

As to `OCc1ccccc1`, where the note is “ChemClass_ERB: Misc”, the result was inactive.

For the compound `ClC1=C(Cl)[C@@]2(Cl)[C@@H]3[C@@H](Cl)[C@H](Cl)C[C@@H]3C1(Cl)C2(Cl)Cl`, for the setting “ChemClass_ERB: Misc”, the result was inactive.

With `COc1ccc(C(=O)c2ccccc2O)c(O)c1`, the result under setting [5] was inactive.

Take `CCCCOC(=O)c1ccccc1C(=O)OCCCC`: where the note is “ChemClass_ERB: Misc”, the result was inactive.

Consider `Oc1ccc(C(=C(Cl)Cl)c2ccc(O)cc2)cc1`, for which, under setting [6], the relative binding affinity is 2.63%.

In the case of `C[C@]12CC[C@@H]3c4cc(O)c(O)cc4CC[C@H]3[C@@H]1CC[C@@H]2O`, under setting [8], the relative binding affinity was 29.5%.

Regarding `Oc1ccc(/C=C/c2ccc(O)cc2)cc1`, the relative binding affinity (ChemClass_ERB: DES Derivatives) was 0.282%.

Regarding `ClC1(Cl)C2(Cl)C3(Cl)C4(Cl)C(Cl)(Cl)C5(Cl)C3(Cl)C1(Cl)C5(Cl)C24Cl` (configuration not stated), under “ChemClass_ERB: Misc”, the result was inactive.

For `O=c1c(-c2ccc(O)c(O)c2)coc2cc(O)ccc12`, the relative binding affinity under setting [1] was 0.00446%.

Take `C[Si](C)(O[Si](C)(C)c1ccccc1)c1ccccc1`: the relative binding affinity (ChemClass_ERB: Misc) is 0.00069%.

For `CCC(c1ccc(O)cc1)C(CC)c1ccc(OC)cc1` (configuration not stated), under “ChemClass_ERB: DES Hexestrol derivatives”, the relative binding affinity was 9.33%.

With `C#C[C@]1(O)CC[C@H]2[C@@H]3CCc4cc(OC)ccc4[C@H]3CC[C@@]21C`, under setting [8], the relative binding affinity is 2.24%.

For the compound `Clc1ccc(C(c2ccccc2Cl)C(Cl)(Cl)Cl)cc1` (configuration not stated), under setting [6], the relative binding affinity was 0.00141%.

Regarding `O=C(O)COc1ccc(Cl)cc1Cl`, the outcome (ChemClass_ERB: Misc) was inactive.

Turning to `Oc1ccc(-c2ccc(Cl)cc2)cc1`, the relative binding affinity (ChemClass_ERB: Biphenyls PCBs) was 0.0066%.

For the compound `ClC1=C(Cl)[C@]2(Cl)[C@@H]3[C@@H]4C[C@@H]([C@H]5O[C@@H]45)[C@@H]3[C@@]1(Cl)C2(Cl)Cl`, the outcome (ChemClass_ERB: Misc) was inactive.

As for `CC(C)(c1ccc(O)cc1)c1ccc(O)cc1`, the relative binding affinity under setting [7] was 0.0078%.

On to `CCOC(=O)c1ccc(O)cc1`, for which the relative binding affinity under setting [3] is 0.0006%.

As to `C[C@H]1CCC[C@H](O)CCCCCc2cc(O)cc(O)c2C(=O)O1`, the relative binding affinity (ChemClass_ERB: Phytoestrogens Mycoestrogens) was 30.2%.
